Drawing on ChEMBL document CHEMBL4483862, “Open-source discovery of chemical leads for next-generation chemoprotective antimalarials” (2018), this text covers IC50 and IC90 for 28 compounds.

This test relates to Plasmodium berghei. Nature of the test: Luciferase/luciferin-expressing antifolate-resistant parasites were used to infect a culture of HepG2 cells that were pre-incubated with compounds. Infected hepatocytes emit light due to the luciferase reaction. Assay results are presented as the percent inhibition of light emission compared to control. […]. Format: functional. The note with it: sporozoite; for IC90: read-out: LUCIFERASE INFECTION ASSAY - IC90.

As for `Cc1noc(C)c1COc1cccc(C(=O)OCC(=O)N2CC(=O)Nc3ccccc32)c1`, the concentration for an effect of 90% (IC90) is greater than 10000 nM. In addition, the IC50 (HEPG2TOX_HILL_SLOPE 1.25, HEPG2TOX_R_SQUARED 0.939, PBLUC_HILL_SLOPE 2.73, PBLUC_R_SQUARED 0.35, read-out: LUCIFERASE INFECTION ASSAY - IC50) came to 6680 nM.
For `CCCc1c(O)nc2ccc(C)cc2c1C`, the IC90 was greater than 15300 nM. The concentration for half-maximal inhibition (IC50) (HEPG2TOX_HILL_SLOPE 1.25, HEPG2TOX_R_SQUARED 0.942, PBLUC_HILL_SLOPE 1.62, PBLUC_R_SQUARED 0.0626, read-out: LUCIFERASE INFECTION ASSAY - IC50) was found to be 11300 nM.
Regarding `CCCNc1nc(-c2ccccc2)c(C(=O)OCC)cc1C#N`, the concentration for an effect of 90% (IC90) stood at 3120 nM. Where the note is “HEPG2TOX_HILL_SLOPE 1.25, HEPG2TOX_R_SQUARED 0.958, PBLUC_HILL_SLOPE 3.81, PBLUC_R_SQUARED 0.673, read-out: LUCIFERASE INFECTION ASSAY - IC50”, the concentration for half-maximal inhibition (IC50) amounted to 1750 nM.
With `CC(C)c1ccc(-n2c(-c3ccccc3)c[n+]3c2CCc2ccccc2-3)cc1`, the IC90 was determined as 1230 nM. Besides, for the setting “HEPG2TOX_HILL_SLOPE 1.23, HEPG2TOX_R_SQUARED 0.988, PBLUC_HILL_SLOPE 3.39, PBLUC_R_SQUARED 0.644, read-out: LUCIFERASE INFECTION ASSAY - IC50”, the IC50 is 642 nM.
In the case of `COc1cc(-c2cnc3cnc(-c4ccc(NCCN5CCOCC5)nc4)cn23)ccc1O`, the IC90 is greater than 7390 nM. In addition, the 50% inhibitory concentration (IC50) (HEPG2TOX_HILL_SLOPE 1.25, HEPG2TOX_R_SQUARED 0.41, PBLUC_HILL_SLOPE 2.45, PBLUC_R_SQUARED 0.19, read-out: LUCIFERASE INFECTION ASSAY - IC50) was 6150 nM.
`Cn1ccc2cc(-c3cnc4cnc(-c5cccc(C(N)=O)c5)cn34)ccc21`: the 90% effect concentration (IC90) is greater than 8980 nM. Besides, for the setting “HEPG2TOX_HILL_SLOPE 1.25, HEPG2TOX_R_SQUARED 0.898, PBLUC_HILL_SLOPE 0.953, PBLUC_R_SQUARED 0.66, read-out: LUCIFERASE INFECTION ASSAY - IC50”, the 50% inhibitory concentration (IC50) turned out to be 1230 nM.
For `CS(=O)(=O)Nc1nc(-c2ccccn2)nc2scc(-c3ccccc3)c12`, the IC90 was determined as 3290 nM. Besides, the 50% inhibitory concentration (IC50) (HEPG2TOX_HILL_SLOPE 1.24, HEPG2TOX_R_SQUARED 0.884, PBLUC_HILL_SLOPE 3.45, PBLUC_R_SQUARED 0.254, read-out: LUCIFERASE INFECTION ASSAY - IC50) was 1740 nM.
Regarding `O=C(NCCO)c1cccc(-c2ccc3ncc(-c4cccc(Cl)c4)n3n2)c1`, the IC90 worked out at 3560 nM. For the setting “HEPG2TOX_HILL_SLOPE 1.24, HEPG2TOX_R_SQUARED 0.781, PBLUC_HILL_SLOPE 15.2, PBLUC_R_SQUARED 0.219, read-out: LUCIFERASE INFECTION ASSAY - IC50”, the IC50 came to 3080 nM.
On to `CCOC(=O)c1c(C)[nH]c(C(=O)C(C)OC(=O)c2n[nH]c(=O)c3ccccc23)c1C` (stereo unspecified), for which the IC90 was greater than 10000 nM. Further, the IC50 (HEPG2TOX_HILL_SLOPE 1.25, HEPG2TOX_R_SQUARED 0.561, read-out: LUCIFERASE INFECTION ASSAY - IC50) was greater than 10000 nM.
As for `O=C(c1cnc2cc3c(cc2c1)OCCO3)c1cc(F)ccc1O`, the IC90 came out at 2410 nM. Besides, under “HEPG2TOX_HILL_SLOPE 1.24, HEPG2TOX_R_SQUARED 0.963, PBLUC_HILL_SLOPE 1.6, PBLUC_R_SQUARED 0.807, read-out: LUCIFERASE INFECTION ASSAY - IC50”, the IC50 was 612 nM.
In the case of `O=C(NCCC1=CCCCC1)c1cc2ccccc2c(=O)[nH]1`, the 90% effect concentration (IC90) was greater than 10000 nM. Also, for the setting “HEPG2TOX_HILL_SLOPE 1.23, HEPG2TOX_R_SQUARED 0.699, PBLUC_HILL_SLOPE 12.6, PBLUC_R_SQUARED 0.339, read-out: LUCIFERASE INFECTION ASSAY - IC50”, the IC50 is 9570 nM.
Regarding `COc1ccc(S(=O)(=O)N(Cc2cccs2)c2ccc3c(c2)OCCO3)cc1NC(C)=O`, the IC90 is greater than 10000 nM. Besides, the IC50 (HEPG2TOX_HILL_SLOPE 1.25, HEPG2TOX_R_SQUARED 0.989, PBLUC_HILL_SLOPE 1.59, PBLUC_R_SQUARED 0.297, read-out: LUCIFERASE INFECTION ASSAY - IC50) worked out at 4150 nM.
Take `OCc1cccc(-c2ccc3ncc(-c4cccc(Cl)c4)n3n2)c1`: the IC90 worked out at 2730 nM. For the same compound, the concentration for half-maximal inhibition (IC50) (HEPG2TOX_HILL_SLOPE 1.23, HEPG2TOX_R_SQUARED 0.98, PBLUC_HILL_SLOPE 1.42, PBLUC_R_SQUARED 0.52, read-out: LUCIFERASE INFECTION ASSAY - IC50) is 582 nM.
For `Cn1ccc2cc(-c3cnc4cnc(-c5ccc6c(c5)OCO6)cn34)ccc21`, the IC90 worked out at 41.3 nM. Further, the IC50 (HEPG2TOX_HILL_SLOPE 1.26, HEPG2TOX_R_SQUARED 0.912, PBLUC_HILL_SLOPE 10.9, PBLUC_R_SQUARED 0.837, read-out: LUCIFERASE INFECTION ASSAY - IC50) is 33.8 nM.
On to `Cc1cccc(C2CC(=O)c3cnn(-c4nc(C)cc(C)n4)c3C2)c1` (stereo unspecified), for which the concentration for an effect of 90% (IC90) was found to be 1390 nM. Moreover, the IC50 (HEPG2TOX_HILL_SLOPE 1.23, HEPG2TOX_R_SQUARED 0.907, PBLUC_HILL_SLOPE 2.7, PBLUC_R_SQUARED 0.565, read-out: LUCIFERASE INFECTION ASSAY - IC50) was 617 nM.
Consider `O=C(NNC(=O)c1ccccc1OCc1cn2ccccc2n1)c1ccc2ccccc2n1`, for which the IC90 amounted to 1740 nM. For the same compound, the 50% inhibitory concentration (IC50) (HEPG2TOX_HILL_SLOPE 1.26, HEPG2TOX_R_SQUARED 0.832, PBLUC_HILL_SLOPE 7.59, PBLUC_R_SQUARED 0.237, read-out: LUCIFERASE INFECTION ASSAY - IC50) came to 1310 nM.
For the compound `O=C(NCc1ccccc1OC1CCCC1)Nc1nnc(C2CC2)s1`, the IC90 came to 7550 nM. For the same compound, the IC50 (HEPG2TOX_HILL_SLOPE 1.24, HEPG2TOX_R_SQUARED 0.927, PBLUC_HILL_SLOPE 4.07, PBLUC_R_SQUARED 0.516, read-out: LUCIFERASE INFECTION ASSAY - IC50) stood at 4400 nM.
As for `Cc1cc(C(=O)/C(C#N)=N/Nc2cccc(Cl)c2)n(C(C)(C)C)n1`, the IC90 was greater than 9600 nM. Also, the concentration for half-maximal inhibition (IC50) (HEPG2TOX_HILL_SLOPE 1.25, HEPG2TOX_R_SQUARED 0.973, PBLUC_HILL_SLOPE 1.27, PBLUC_R_SQUARED 0.674, read-out: LUCIFERASE INFECTION ASSAY - IC50) is 3490 nM.
Regarding `O=C(N/N=C(\Cc1ncc[nH]1)c1ccccc1)c1cccs1`, the IC90 amounted to 4170 nM. For the same compound, under “HEPG2TOX_HILL_SLOPE 1.23, HEPG2TOX_R_SQUARED 0.975, PBLUC_HILL_SLOPE 4.09, PBLUC_R_SQUARED 0.691, read-out: LUCIFERASE INFECTION ASSAY - IC50”, the concentration for half-maximal inhibition (IC50) turned out to be 2440 nM.
As for `Cc1ccc(C)c(OC2CCN(C(=O)Nc3cc(C)on3)CC2)c1`, the IC90 amounted to 1370 nM. Further, the IC50 (HEPG2TOX_HILL_SLOPE 1.23, HEPG2TOX_R_SQUARED 0.839, PBLUC_HILL_SLOPE 15.3, PBLUC_R_SQUARED 0.595, read-out: LUCIFERASE INFECTION ASSAY - IC50) stood at 1190 nM.
For the compound `COC(=O)c1c(C)[nH]c(C(=O)C(C)OC(=O)Cn2c(C(F)(F)F)nc3ccccc32)c1C` (stereo unspecified), the IC90 is greater than 10000 nM. Also, the IC50 (HEPG2TOX_HILL_SLOPE 1.23, HEPG2TOX_R_SQUARED 0.914, read-out: LUCIFERASE INFECTION ASSAY - IC50) was greater than 10000 nM.
With `O=C(NN=c1nc[nH]c2ccccc12)c1c(O)c(O)cc2ccccc12`, the IC90 was 1340 nM. Moreover, the IC50 (HEPG2TOX_HILL_SLOPE 1.23, 1.37, HEPG2TOX_R_SQUARED 0.873, 0.334, PBLUC_HILL_SLOPE 12.1, 7.99, PBLUC_R_SQUARED 0.334, 0.684, read-out: LUCIFERASE INFECTION ASSAY - IC50) is 1070 nM.
Turning to `O=C(NCC1CCCO1)c1cc2c([nH]c3ccccc32)c(-c2ccc(F)cc2)n1` (stereo unspecified), the concentration for an effect of 90% (IC90) was determined as 8340 nM. The IC50 (HEPG2TOX_HILL_SLOPE 1.25, HEPG2TOX_R_SQUARED 0.9, PBLUC_HILL_SLOPE 2.06, PBLUC_R_SQUARED 0.74, read-out: LUCIFERASE INFECTION ASSAY - IC50) is 2860 nM.
For `O=C(Nc1nc2ccccn2c1C(=O)NC1CCCC1)c1ccc(Cl)cc1Cl`, the IC90 is 2660 nM. Further, the IC50 (HEPG2TOX_HILL_SLOPE 1.22, HEPG2TOX_R_SQUARED 0.989, PBLUC_HILL_SLOPE 22.2, PBLUC_R_SQUARED 0.579, read-out: LUCIFERASE INFECTION ASSAY - IC50) is 2410 nM.
For the compound `CCOc1cc2ncc(C#N)c(Nc3ccc(F)c(Cl)c3)c2cc1N`, the IC90 turned out to be 6300 nM. In addition, where the note is “HEPG2TOX_HILL_SLOPE 1.25, HEPG2TOX_R_SQUARED 0.941, PBLUC_HILL_SLOPE 3.96, PBLUC_R_SQUARED 0.532, read-out: LUCIFERASE INFECTION ASSAY - IC50”, the half-inhibitory concentration (IC50) was found to be 3610 nM.
`COc1cc(NC(=O)c2cc(N3CCN(c4ccccn4)CC3)ncn2)cc(OC)c1OC`: the IC90 was determined as 1610 nM. Besides, for the setting “HEPG2TOX_HILL_SLOPE 1.23, HEPG2TOX_R_SQUARED 0.824, PBLUC_HILL_SLOPE 2.21, PBLUC_R_SQUARED 0.872, read-out: LUCIFERASE INFECTION ASSAY - IC50”, the IC50 came to 596 nM.
On to `c1cc2c(cc1-c1cn3c(-c4ccc5c(c4)OCO5)cnc3cn1)OCO2`, for which the concentration for an effect of 90% (IC90) amounted to 8220 nM. For the same compound, the half-inhibitory concentration (IC50) (HEPG2TOX_HILL_SLOPE 1.25, HEPG2TOX_R_SQUARED 0.883, PBLUC_HILL_SLOPE 2.72, PBLUC_R_SQUARED 0.694, read-out: LUCIFERASE INFECTION ASSAY - IC50) is 3660 nM.
As for `c1ccc(-n2c(SCc3nc(-c4cccs4)no3)nnc2-c2ccc3c(c2)OCO3)cc1`, the IC90 was 6690 nM. For the same compound, the IC50 (HEPG2TOX_HILL_SLOPE 1.25, HEPG2TOX_R_SQUARED 0.965, PBLUC_HILL_SLOPE 1.25, PBLUC_R_SQUARED 0.656, read-out: LUCIFERASE INFECTION ASSAY - IC50) amounted to 1150 nM.

Broadly, the IC50 is the concentration at which inhibition is half-maximal. Usually IC90 stands for the concentration needed for an effect of 90%.
